Source: patent US9625448B2, “Double caged GABA compounds, bis-CNB-GABA” (The Trustees of Princeton University, priority 2014, dated 2017)
Read-outs that look alike come from different tables or passages of the source.

How the values were obtained:
[1] = cited from earlier work
[2] = cited from earlier work; remark: listed apart in the source
GABAA receptors [3] = assay: Current evoked by puff of 100 μM GABA and caged compounds around the soma (Matsuzaki et al., 2010); type: cell-based; conditions: for IC33: calculated, q=0.33
Experimental: (§1) FIG. 26 illustrates whole-cell patch clamp recordings from dentate granule cells of rat hippocampal slices reported by Molnár & Nadler, 2000. […] Holding potential of −80 mV. (Molnár & Nadler, 2000 European Journal of Pharmacology, 391, 255-262, which is incorporated herein by reference as if fully set forth, which is incorporated herein by reference as if fully set forth). […] FIG. 27 illustrates summary of the amplitudes of the current evoked by puff of 100 μM GABA and caged compounds around the soma reported by Matsuzaki et al., 2010. The amplitude was normalized to the mean current that was induced by GABA application alone. Left panel illustrates control (n=7); +10 mM CNI-GABA (n=7). Central panel illustrates control (n=10); +0.4 mM CDNI-GABA (n=10), +1.35 mM CDNI-GABA (n=14); +10 mM CDNI-GABA (n=10). Right panel illustrates control (n=9); +1 mM MNI-Glu (n=4); +10 mM MNI-Glu (n=9). ** p<0.0001, * p<0.01 (Matsuzaki et al., 2010 Nature Chemical Biology, 6, 255-257, which is incorporated herein by reference as if fully set forth). […] Though this is a much higher concentration compared to the IC50 for CNB-GABA, CDNI requires a higher concentration when photolyzed in vitro because of its two-photon sensitivity. Because 10 mM is the concentration used for two-photon uncaging, this antagonism is still practically limiting. […] FIG. 28 illustrates the effects of NI-caged GABA and DPNI-GABA on amplitudes of miniature GABA synaptic currents as reported by Trigo et al., 2009. Referring to FIG. 28 (left), this panel illustrates recordings of miniature synaptic GABA currents in molecular layer interneurons before and during application of 1 mM DPNI-GABA. The initial inward current on diluting the cage into the bath was attributable to contaminating levels of GABA. Referring to FIG. 28 (right), the panel illustrates summary histogram from five cells of the block of spontaneous GABA currents by DPNI-GABA at different concentrations in the bath. (Trigo et al., 2009 Journal of Neuroscience Methods, 181, 159-169, which is incorporated herein by reference as if fully set forth).

GABAA receptors [4] = conditions: Table 2; Matsuzaki et al. 2010; read-out: IC50 in blocking synaptic GABAA currents; cited from earlier work
[5] = aqueous solution; literature; cited from earlier work
cerebellar interneurons = conditions: FIG. 43A, 1 mM; see Trigo et al., 2009; cited from earlier work
GABAA receptors [6] = assay: Miniature GABA synaptic currents in molecular layer interneurons (Trigo et al., 2009); type: cell-based
Experimental: as §1

GABAA receptors [7] = conditions: cited from earlier work
GABAA receptors [8] = conditions: cited from earlier work; remark: listed apart in the source
[9] = N-position; Wieboldt et al., 1994; cited from earlier work
[10] = system: cerebellar molecular layer interneurons; assay: Photolysis-evoked GABAergic currents in cerebellar molecular layer interneurons; type: cell-based
Experimental: The biological properties of our synthetic bis-CNB-GABA were evaluated using whole-cell patch recording from cerebellar molecular layer interneurons.
FIGS. 42A-42E illustrate physiological responses to photolysis of bis-CNB-GABA. FIG. 42A illustrates a cerebellar molecular layer interneuron visualized using Alexa 488 in the patch recording electrode solution. Referring to FIG. 42A, bis-CNB-GABA (0.6 mM) was photolyzed with a 405 nm laser spot in 3 different locations (indicated by 1, 2 and 3). Still referring to FIG. 42A, laser-evoked GABAergic currents are shown on the right panel. Still referring to FIG. 42A, gray traces show individual sweeps and black traces are averages. Still referring to FIG. 42A, the gray sweep at bottom indicates the laser flash (1 ms duration, intensity 5 mW) as recorded using a photodiode. FIG. 42B illustrates bis-CNB-GABA (1.4 mM) was photolyzed with a […] LED at progressively higher flash energies (0.25-1.1 mW, 5-50 ms, 1.25-55 μJ). FIG. 42C illustrates the same experiment as shown in FIG. 42B with Responses to mono-CNB-GABA (50 μM). FIG. 42D illustrates normalized current as a function of relative LED flash energies plotted on a log-log scale. FIG. 42E illustrates laser-evoked whole-cell current recorded in the absence and presence of 3 μM gabazine, a GABA receptor antagonist. Referring to FIG. 42E, a larger flash energy was used in the presence of gabazine.
Referring to FIG. 42A, molecular layer interneurons receive excitatory glutamatergic synapses, as well as inhibitory GABAergic synapses that show a pronounced level of spontaneous activity (gray traces). The effects of bis-CNB-GABA on these synaptic currents were tested.
By contrast, the relationship for mono-O-CNB-GABA was close to linear (log-log slope=1.3±0.1, n=3). For these measurements, evoked currents were normalized to the maximum current observed in the same neuron. […] These power laws are consistent with a process in which each molecule of bis-CNB-GABA must cumulatively undergo two uncaging reactions in order to release an active GABAA agonist.
To test whether bis-CNB-GABA-evoked responses resemble physiological events in their kinetics, we measured the kinetic properties of flash responses. […] This rise time is consistent with the dark reaction time (1.5 ms) for the slower cage, N-mono-CNB-GABA (Wieboldt, R.; Ramesh, D.; Carpenter, B. K; Hess, G. P. Biochemistry, 1994, 33, 1526-1533, which is incorporated herein by reference as if fully set forth). […] These rates approach those of spontaneous events and are among the fastest described for other GABA cages. […]

Question: Which results are given for `O=C(O)CC[C@H](NC(=O)OCc1cc(=O)oc2cc(O)c(Br)cc12)C(=O)O` [Bhc-glutamate]?
Answer: product of extinction coefficient and quantum yield (φ×ε) ([1]; caged on the amine): 331 M⁻¹ cm⁻¹; quantum yield ([1]; caged on the amine): 0.019; product of extinction coefficient and quantum yield (ε×Φ) ([1]; literature values): 371 M⁻¹ cm⁻¹; quantum yield ([1]; literature values): 0.019; extinction coefficient ([2]; at 368 nm, caged on the amine): 17,470 M^−1 cm^−1; extinction coefficient ([2]; at 369 nm, caged at the carboxylate): 19,550 M^−1 cm^−1

Question: With `NCCCC(=O)N1CCc2c(OCC(=O)O)c([N+](=O)[O-])cc([N+](=O)[O-])c21` [CDNI-GABA] as the compound, how does the “concentration showing 33% reduced response” value (GABAA receptors [3]) read?
Answer: 220 µM

Question: What about the IC33 (GABAA receptors [3]; Table 1) of the same compound?
Answer: 0.22

Question: And the IC50 (GABAA receptors [3]; from data of Matsuzaki et al., 2010)?
Answer: 450 µM

Question: What about the IC50 (GABAA receptors [4]) of the same compound?
Answer: 600 µM

Question: What about the Stability [5] of the same compound?
Answer: Stable

Question: What about the “product of extinction coefficient and quantum yield (ε×Φ)” value ([1]; literature values) of the same compound?
Answer: 3,840 M^−1 cm^−1

Question: And the quantum yield ([1]; literature values)?
Answer: 0.6

Question: What about the extinction coefficient ([2]; at 330 nm) of the same compound?
Answer: 6,400 M^−1 cm^−1

Question: With `NCCCC(=O)N1CCc2c(OC(COP(=O)(O)O)COP(=O)(O)O)ccc([N+](=O)[O-])c21` [DPNI-GABA] as the compound, how does the “effect on inward holding current compared with mono-O-CNB-GABA” value (cerebellar interneurons) read?
Answer: similar, though less pronounced

Question: What about the “concentration showing 33% reduction” value (GABAA receptors [6]) of the same compound?
Answer: 230 µM

Question: And the IC33 (GABAA receptors [6]; Table 1, calculated, q=0.33)?
Answer: 0.23 mM

Question: And the IC50 (GABAA receptors [6]; from data of Trigo et al., 2009)?
Answer: 470 µM

Question: And the decrease in response (GABAA receptors [7]; 1 mM)?
Answer: > 50%

Question: What about the IC50 (GABAA receptors [7]; Table 2, cerebellar interneurons, read-out: IC50 in blocking synaptic GABAA currents) of the same compound?
Answer: 500 µM

Question: And the “effect on rise times of IPSCs” value (GABAA receptors [7]; Trigo et al., 2009)?
Answer: prolongs rise times

Question: And the Stability [5]?
Answer: Stable

Question: Which “effect on GABAA receptors” value (GABAA receptors [8]; less than CNB-GABA, Palma-Cerda et al., 2012) does the source give for `COc1ccc([N+](=O)[O-])c2c1CCN2C(=O)CCCN` [MNI-GABA] here?
Answer: antagonistic effect

Question: With `COc1ccc([N+](=O)[O-])c2c1CCN2C(=O)CC[C@H](N)C(=O)O` [MNI-glu] as the compound, how does the IC50 (GABAA receptors [3]; Table 1, calculated from data of Matsuzaki et al. 2010) read?
Answer: 1100 µM

Question: And the IC33 (GABAA receptors [3]; Table 1)?
Answer: 0.37

Question: What about the quantum yield ([1]; literature values) of the same compound?
Answer: 0.085

Question: For `O=C(O)CCCNC(C(=O)O)c1ccccc1[N+](=O)[O-]` (stereo not shown) [N-mono-CNB-GABA], which dark reaction time [9] is on record?
Answer: 1.5 ms

Question: With `F[P-](F)(F)(F)(F)F.NCCCC(=O)[O-].[Ru+2].c1ccc(-c2ccccn2)nc1.c1ccc(-c2ccccn2)nc1.c1ccc(P(c2ccccc2)c2ccccc2)cc1` [RuBi-GABA, Ruthenium-bipyridine-triphenylphosphine-GABA] as the compound, how does the “concentrations at which antagonistic GABAA receptor activity is exhibited” value (GABAA receptors [8]; Verde et al., 2008) read?
Answer: above 20 μM

Question: For `CP(C)C.F[P-](F)(F)(F)(F)F.F[P-](F)(F)(F)(F)F.NC(CCC(=O)[O-])C(=O)[O-].[Na+].[Na+].[Ru+2].c1ccc(-c2ccccn2)nc1.c1ccc(-c2ccccn2)nc1` [RuBi-glutamate], which IC50 (GABAA receptors [8]; Table 2 footnote 2, Fino et al., 2009, read-out: IC50 in blocking synaptic GABAA currents) is on record?
Answer: 300 µM

Question: With `COc1ccc(-c2ccc(=N)n(CCCC(=O)O)n2)cc1` [gabazine] as the compound, how does the “effect on currents produced by photolysis of bis-CNB-GABA” value ([10]; 3 μM gabazine) read?
Answer: reversibly eliminated

Question: What about the “effect on responses to photolysis of bis-CNB-GABA” value ([10]; 3 M gabazine) of the same compound?
Answer: eliminated these responses
